From patent US7204974B2, “Stabilization of oxidation-sensitive or UV-sensitive active ingredients” (Beiersdorf AG, priority 2001, dated 2007)

experiment: Polarity of lipids; assay type: physicochemical; details: further lipids, polarity of ≧30 mN/m

Compound	Polarity mN/m
Dioctylcyclohexane	39.0 mN/m
CCCCC(CC)COC(=O)CCCCCC(C)C (stereo not drawn) [2-Ethylhexyl Isononanoate]	31.0 mN/m

Other lines, results leading:

Polarity mN/m	Compound
31.1 mN/m	CC(CCOC(=O)CC(C)CC(C)(C)C)CC(C)(C)C (stereo not drawn) [Trimethylhexyl Isononanoate]
43.8 mN/m	CCCCCCCCCCCCCC(C)C [Isohexadecane]
41.9 mN/m	CCCCCCCCCCCCCCCCCC(C)C [Isoeicosane]
31.6 mN/m	CCCCCCCCOC(=O)CCCCCCCCCCCCCCC(C)C [Octyl Isostearate]
40.5 mN/m	CCCCCCCC/C=C\CCCCCCCC(=O)OCCOCCOCC [Ethoxydiglycol Oleate]
36.2 mN/m	Isocetyl Palmitate

same assay, conditions: lipids with a polarity of at most 30 mN/m

Compound	Polarity mN/m
PEG 2 Diethylene Hexanoate [Dermol 488]	10.1 mN/m
CCCCCCC(CCCC)C(=O)O (stereo not drawn) [Isocarb 12, Butyl Octanoic Acid]	22.1 mN/m
CCCCCCOCCCCCC [Dihexyl ether, Dihexyl Ether]	29.2 mN/m
CCCCC(CC)C(=O)OCCC(C)CC(C)(C)C (stereo not drawn) [Dermol 98, 2-Ethylhexanoic acid 3,5,5-trimethyl ester]	26.2 mN/m
CCCCCCC(CO)CCCC (stereo not drawn) [Isofol 12, Butyl Octanol]	17.4 mN/m
CCCCCCCCCCC(CO)CCCCCCCC (stereo not drawn) [Eutanol G, Octyldodecanol]	24.8 mN/m
CC(C)CCCCCCCOC(=O)CC(C)CC(C)(C)C (stereo not drawn) [Dermol 109, Isodecyl 3,5,5-Trimethyl Hexanoate]	29.1 mN/m
CCCCCCCC(=O)OCCCCCCCC(C)C [Dermol 108, Isodecyl Octanoate]	29.6 mN/m
Cetearyl Isononanoate [Cetiol SN]	28.6 mN/m
CCCCOC(=O)CCCCC(=O)OCCCC [Cetiol B, Dibutyl Adipate]	14.3 mN/m
Cyclomethicone [DC Fluid 345]	28.5 mN/m
CCCCCCCCCC(=O)OCCCC(C)C [Dermol IHD, Isohexyl Decanoate]	29.7 mN/m
CCCCCCCCC(CO)CCCCCC (stereo not drawn) [Isofol 16, Hexyl Decanol]	24.3 mN/m
CC(C)CCCCCCCOC(=O)C(C)(C)C [DUB VCI 10, Isodecyl Neopentanoate]	29.9 mN/m
Isotridecyl 3,5,5-trimethylhexanonanoate [Dermol 139]	24.5 mN/m

More lines, now with the values ahead:

Polarity mN/m	Compound
17.8 mN/m	CCCCCCCCCCCCCCCCCCOC(=O)CCCCCC [Tegosoft SH, Stearyl Heptanoate]
2.4 mN/m	Triisostearin [Prisorine 2041 GTIS]
22.1 mN/m	CCCCCCCCCCCCCC(=O)OCC(CCCCCCCC)CCCCCCCCCC (stereo not drawn) [M.O.D., Octyldodecyl Myristate]
28.5 mN/m	Cyclopolydimethylsiloxane [Dow Corning Fluid 244]
21.9 mN/m	CCCCCCCCCCCCCCCCCC(=O)OC(C)C [Isopropyl stearate, Isopropyl Stearate]
20.2 mN/m	CCCCCCCC(=O)OCC(COC(=O)CCCCCCC)OC(=O)CCCCCCC [Trivent OCG, Tricaprylin]
22.7 mN/m	Phenyl Trimethicone [Silicone oil VP 1120]
